Reference: patent publication US20140120087A1, “TRIAZOLOPYRIDINES” (BAYER INTELLECTUAL PROPERTY GMBH, priority 2011, published 2014)

Key:
Mps-1 kinase [1] = molecular target: T1, Mps-1 kinase (Homo sapiens, UniProt P33981); test: Mps-1 kinase assay with 10 μM ATP (TR-FRET)
T1 sequence (P33981 1-857): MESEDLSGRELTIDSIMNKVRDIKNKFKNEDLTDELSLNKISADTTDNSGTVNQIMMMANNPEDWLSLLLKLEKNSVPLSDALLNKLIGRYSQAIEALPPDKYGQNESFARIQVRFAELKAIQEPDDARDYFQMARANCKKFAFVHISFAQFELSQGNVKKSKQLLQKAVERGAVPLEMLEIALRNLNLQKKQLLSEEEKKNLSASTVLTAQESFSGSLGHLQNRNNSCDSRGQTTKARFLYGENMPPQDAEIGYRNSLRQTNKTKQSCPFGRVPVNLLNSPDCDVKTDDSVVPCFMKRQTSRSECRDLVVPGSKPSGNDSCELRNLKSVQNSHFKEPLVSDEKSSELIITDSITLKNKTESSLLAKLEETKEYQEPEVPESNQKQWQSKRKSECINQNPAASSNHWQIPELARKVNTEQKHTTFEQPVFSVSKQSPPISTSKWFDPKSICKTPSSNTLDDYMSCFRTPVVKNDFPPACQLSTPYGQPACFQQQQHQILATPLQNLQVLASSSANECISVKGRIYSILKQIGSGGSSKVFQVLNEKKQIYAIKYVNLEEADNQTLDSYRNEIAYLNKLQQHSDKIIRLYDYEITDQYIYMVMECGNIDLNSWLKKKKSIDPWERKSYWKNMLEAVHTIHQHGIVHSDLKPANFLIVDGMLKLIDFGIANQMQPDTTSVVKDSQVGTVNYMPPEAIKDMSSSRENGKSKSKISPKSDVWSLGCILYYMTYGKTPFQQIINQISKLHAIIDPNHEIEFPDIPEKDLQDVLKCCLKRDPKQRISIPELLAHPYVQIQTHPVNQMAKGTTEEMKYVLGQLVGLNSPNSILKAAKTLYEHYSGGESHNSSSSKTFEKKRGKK

Mps-1 kinase [2] = molecular target: T1, Mps-1 kinase; test: Mps-1 kinase assay with 2 mM ATP (TR-FRET)
[3] = Hydrolytic stability assay at pH 2; assay type: physicochemical; settings: buffer pH 2, 37° C., compounds of the invention
Outline: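 Compound from a 10 mM DMSO stock was diluted in acetonitrile, added to pH 2 buffer and incubated at 37° C. HPLC injections were made at time zero and after 1, 2 and 24 hrs. Decay (%) was calculated from peak areas relative to the time-zero injection.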

Structure (SMILES) | IC50 (Mps-1 kinase [1]) [nM] | IC50 (Mps-1 kinase [2]) [nM] | Hydrolysis at pH 2; Decay in % after 24 h [3] [%]
CCNC(=O)c1ccc(Nc2nc3ccc(-c4ccc(C(=O)NCc5ccc(F)cc5)cc4)cn3n2)c(OC)c1 [Example 02.20, N-ethyl-4-[(6-{4-[(4-fluorobenzyl)carbamoyl]phenyl}[1,2,4]triazolo[1,5-α]-pyridin-2-yl)amino]-3-methoxybenzamide] | ≤ 1 | 1.7 | <10
COc1cc(C(=O)NCCO)ccc1Nc1nc2ccc(-c3ccc(C(=O)NCc4ccc(F)cc4)cc3)cn2n1 [Example 02.1, 4-[(6-{4-[(4-fluorobenzyl)carbamoyl]phenyl}[1,2,4]triazolo[1,5-α]pyridin-2-yl)amino]-N-(2-hydroxyethyl)-3-methoxybenzamide] | ≤ 1 | 1.1 | <10
CC(C)(CO)NC(=O)c1ccc(Nc2nc3ccc(-c4ccc(C(=O)NCc5ccc(F)cc5)cc4)cn3n2)c(OCC(F)(F)F)c1 [Example 02.18, 4-[(6-{4-[(4-fluorobenzyl)carbamoyl]phenyl}[1,2,4]triazolo[1,5-α]pyridin-2-yl)amino]-N-(1-hydroxy-2-methylpropan-2-yl)-3-(2,2,2-trifluoroethoxy)-benzamide] | ≤ 1 | ≤ 1 | <10
